Here are results for 2 substances from PMC7653765 (BMC Complementary Medicine and Therapies, 2020).

Read-outs that look alike come from different tables or passages of the source.

In the assay the test system is 3 T3-L1 adipocytes. Description: Adipocyte glucose uptake test. The format is cell-based, mouse. The method, then:
The 3 T3-L1 mouse embryonic fibroblasts were cultured for induction of adipogenesis, and […] 3 T3-L1 adipocytes were plated for glucose uptake. Krebs-Ringer-Phosphate-HEPES (KRPH) buffer was used to prepare 10-point 3-fold gradient diluted samples. After starvation, the adipocytes were rinsed with KRPH buffer. Ninety μL of gradient-diluted samples of different concentrations were added to each well with high- and low-signal control wells and incubated in a CO2 incubator for 30 min. Add 10 μL/well of KRPH buffer containing 0.25 μCi1- [3H] -deoxyglucose and 50 μM 2-deoxyglucose and incubate in a CO2 incubator for 20 min. Wash the cells with DPBS containing 10 mM glucose at 4 °C. Lysate fat cells with sodium hydroxide solution, transfer to scintillation tube, add scintillation fluid, and count with TriCarb.

Where [1] appears, read: mean ± SEM of 3 repeats, read-out: EC50, fat cell glucose uptake, Mean ± SEM.
Setting [2] is: read-out: EC50, fat cell glucose uptake, N = 1, replicate N = 1, 3 T3-L1 adipocytes, 30 min sample, 20 min [3H]-deoxyglucose.
Setting [3] is: read-out: EC50, fat cell glucose uptake, N = 2, replicate N = 2.
Setting [4] is: read-out: EC50, fat cell glucose uptake, N = 3, replicate N = 3.

In the case of “H-Insulin: recombinant human insulin injection obtained from Lilly, a regular insulin”, the EC50 was 1.8 ± 0.2 nM under setting [1], 0.9 nM under setting [2], 1.7 nM under setting [3] and 2.2 nM under setting [4].
In the case of “S-Insulin: recombinant human-derived insulin from Sigma, a regular insulin, standard control”, the EC50 turned out to be 3.7 ± 0.5 nM under setting [1], 2.5 nM under setting [2], 5.3 nM under setting [3] and 3 nM under setting [4].
